melting point [°C]	SMILES
51 to 53	CCN(c1nc(C)cc(N2CCSCC2)n1)c1ccc(C(C)C)cc1I
110 to 112	C[C@@H](c1ccc(-c2ncc(C(=O)N(C)C)s2)cc1)N1CC[C@](CC(C)(C)O)(c2ccccc2)OC1=O
161	O=Cc1ccc(C(=O)Nc2ccncc2)cc1
127 to 129	CC(=O)NS(=O)(=O)c1ccc(C2=C(c3ccc(F)c(Cl)c3)CCC2)cc1
99 to 101	O=C1C=CC(Cl)(C(=O)OC(c2ccccc2)c2ccccc2)O1 (stereo not drawn)
104 to 105	CC1Cc2cccc(-c3cccc4ccccc34)c2C1=O (stereo not drawn)
202 to 205	Cc1cc(C)n(C)c(=O)c1C#N
72.3 to 73.2	CC1(C)SC(=O)N(Cc2ccccc2[N+](=O)[O-])C1=O
114 to 117	CC(=O)NCCCSc1c(Cc2cccc3ccccc23)sc2c1c(=O)n(C)c(=O)n2CC(C)C
188	CCOC(=O)C1=C(C)Nc2nc(N3CCOCC3)nc(N3CCOCC3)c2C1c1ccccc1OC (stereo not drawn)
165 to 166	CCN(CC)c1nc(O)cc(OC)n1
158 to 160	CC(C)n1nc(-c2sc(N(C)C)nc2-c2ccccc2)ccc1=O
86 to 90	CC1CN2N=C(c3cccc(C(F)(F)F)c3)C=CC2=N1 (stereo not drawn)
85 to 86	CC(C)c1cc(OCCO[Si](C(C)C)(C(C)C)C(C)C)cc2c1C(=O)N(CCl)S2(=O)=O
192	CC(C)(N)c1ccc(-c2nc(Nc3ccc(F)c(F)c3)ncc2C#N)cc1
209 to 210	Cc1ccc2c(c1)sc1ncc(C(O)CCc3ccccc3)n12 (stereo not drawn)
79.5 to 81.5	CN1CC(CCN2CCN(c3ccccc3Cl)CC2)OC1=O (stereo not drawn)
60 to 63	COC(=O)CNc1cccc(C(F)(F)F)c1
110	Cn1c(-c2ccc(Cl)cc2)c(C#N)c(Cl)c1C(F)(F)F
240 to 242	CCOC(=O)c1cn2c3c(c(F)c(F)cc3c1=O)OCC2COC(=O)c1cc([N+](=O)[O-])cc([N+](=O)[O-])c1 (stereo not drawn)
163 to 173	CCOc1ccc(N(c2ccccc2)C2(c3ccc(N(CC)Cc4ccccc4)cc3)OC(=O)c3ccccc32)cc1 (stereo not drawn)
175 to 176	COc1ccc(C(=O)NCCCCCCCCNC(=O)c2ccc(OC)cc2)cc1
136 to 137	N#CCc1cccc(Cc2ccccc2)c1
162	O=C(CNC(=O)n1ccnc1)N(c1ccccc1)c1ccccc1
223 to 224	CC(=O)OC1(C(=O)CO)CCC2C3CCC4=CC(=O)C=CC4(C)C3C(O)CC21C (stereo not drawn)

melting point [°C]	SMILES
49 to 51	CCc1c(F)nc(-c2ccccc2)nc1F
150 to 151	Clc1nc(Cl)nc(-c2cccn2Cc2ccccc2)n1
125	CC(C)(C(N)=O)c1ccc(Cl)cc1
157 to 159	CN1CCN(C2=Nc3ccccc3-n3ccc4cc(Br)cc2c43)CC1
> 300	Cc1ccc(N2C(=O)C(O)=C(C(=O)c3ccc(C(C)C)cc3)C2c2ccc(Cn3cnnn3)cc2)nn1 (stereo not drawn)
151	Cc1cc(Cl)cc(C(=O)Nc2ccc(Cl)cn2)n1
212 to 221	CC(C)(C)OC(=O)N1CCn2c(c(C(N)=O)c(C#N)c2C2CCOCC2)C1
96 to 98	COC(=O)Nc1ccc(O)c(Cl)c1
128 to 130	COC(=O)c1ccc(CN([C@@H](CO)Cc2ccccc2)S(=O)(=O)c2ccc(Cl)cc2)cc1
95 to 117	CC=CCn1c(C)c(C)c2cnnc(SCc3c(F)cccc3Cl)c21
199 to 200	O=S(=O)(c1ccc(Br)cc1)N1CCN(c2ccncc2)CC1
139 to 140	O=C(O)CCc1cnoc1-c1ccc(Cl)c(F)c1
192	COc1nc2c(Cl)c(Cl)c(Cl)c(Cl)c2n1COC(CO)CO
203 to 205	Cc1cnc2c(c1-c1ccccc1)C(=O)N(Cc1cc(C(F)(F)F)cc(C(F)(F)F)c1)CCN(C)C2=O
135	CONc1cc(Cl)nc(S(C)(=O)=O)n1
216 to 217	NC1=CC(=O)CC(c2c(Cl)cccc2Cl)C1 (stereo not drawn)
118 to 119	Cc1nc(Cc2ccc([N+](=O)[O-])cc2)cs1
150 to 152	CCOc1nc(N)nc2c1ncn2CCC(CO)CO
82 to 86	CC(CCCc1ccc(CCCCNC(=N)NC(=O)c2nc(Cl)c(N)nc2N)cc1)NCC(O)c1cccc(O)c1 (stereo not drawn)
177 to 179	CN(C(=O)c1ccc2nonc2c1)C1CCN(S(C)(=O)=O)CC1
84 to 87	O=P(O)(CCc1ccccc1)CCc1ccccc1
265	c1cc2c(Nc3ccc4[nH]ccc4c3)ncnc2cn1
87 to 89	COc1ccc(COC(=O)[C@H]2CC[C@H](C(=O)O)CC2)cc1
270 to 271	CC(C)(C)Cn1c(=O)c(=O)[nH]c2cc(Cl)c([N+](=O)[O-])cc21
215 to 219	Cn1ncnc1COc1nn2c(-c3ccccc3F)nncc2c1Br

melting point [°C]	SMILES
127 to 129	FC(F)(F)c1cccc(C=Cc2ccccc2)c1
87 to 88	CCOC(=O)c1ccc(NC(=O)OC(C)(C)C)nn1
124 to 126	CCCCOCCOc1ccc(-c2ccc(N3CCCCCC3)c(C=C(C)C(=O)O)c2)cc1
237 to 239	CC(C)C(C(=O)O)N(C)S(=O)(=O)c1ccc(-c2ccc(NC(=O)c3cc4ccccc4o3)cc2)cc1 (stereo not drawn)
140 to 142	O=[N+]([O-])c1ccc(Cc2nc(-c3ccncc3)cs2)cc1
65 to 67	COc1ccc(C2(C)C=C(Cl)N=CN2)cc1 (stereo not drawn)
159 to 162	Oc1ccc2c(c1O)Cc1ccccc1-2
125 to 133	O=C(/C=C/c1ccccc1[N+](=O)[O-])N1CCN(C(=O)c2cc(C(F)(F)F)cc(C(F)(F)F)c2)[C@H](Cc2c[nH]c3ccccc23)C1
95 to 97	CCCc1c(OCCCCC(=O)N(CC)CC)ccc(C(C)=O)c1O
198 to 200	CC(C)CNCc1ccc(S(=O)(=O)c2ccc(S(N)(=O)=O)s2)cc1
171 to 173	O=c1cc(N2CCSCC2)oc2c1ccc1ccccc12
114	CC1=C(c2ccccc2)C(=O)N(C(C)(C)C(=O)Nc2cccc(Cl)c2)CO1
100 to 102	COc1cc(Cl)c(C#N)cc1C(=O)O
92 to 94	COc1ccc2cc([C@H](C)C(=O)OCCNC(=O)c3cccc(CO[N+](=O)[O-])c3)ccc2c1
154 to 155	C[C@H](NC(c1ccccc1)(c1ccccc1)c1ccccc1)C(=O)O
271 to 275	COc1cc2c(cc1/C=C/CCO)[nH]c1cc(-c3ccccc3Cl)c3c(c12)C(=O)NC3=O
93	CCCCCCCNC(=O)N(C)c1cccc(-c2ccc(C=C(OC)C(=O)OC)cc2)c1
221 to 222	Cc1cc(C2(C(F)(F)F)CC(c3ccc(F)cc3)=NO2)ccc1N1C(=O)c2cccc([N+](=O)[O-])c2C1=O (stereo not drawn)
175 to 176	Nc1nc2[nH]c(CCCc3ccc(C(=O)N[C@@H](CCC(=O)O)C(=O)O)s3)cc2c(=O)[nH]1
247 to 248	O=C(Nc1ccc2oc3c(c2c1)CCCC3)C12CC3CC(CC(C3)C1)C2
185 to 186	Cc1cc2c(cc1O)OCCC2=O
85 to 86	COC(=O)CS(=O)(=O)CCCC=C1SC=CS1
168 to 170	O=c1ccc(C(F)(F)F)cn1Cc1ccc(NCCCN2CCCCC2)cc1
155 to 156	CCCc1nc2ccc(C(=O)NCc3ccc(N(C)C)cc3)cc2n1Cc1ccccc1Cl
185 to 187	COc1cc2c(Nc3ccc4cn[nH]c4c3)c(C#N)cnc2cc1OCCN(C)CC1OCCO1

melting point [°C]	SMILES
112 to 115	O=C(NCCCN1CCC(c2ccccc2)(c2ccccc2)CC1)N1C(=O)OCC1c1ccc(F)c(Cl)c1 (stereo not drawn)
74 to 78	CCCCCCCCCCOc1ccc(OCc2ccccc2)c(C(=O)N(CC(=O)O)CC(=O)O)c1
138 to 142	CC(C)(C)OC(=O)N1CCC(c2nc3cc(-c4ccc(C#N)c(F)c4)ccc3o2)CC1
155 to 156	CC(N1C(=O)C(=O)N(c2ccc(F)cc2F)C1=S)C(C)(C)C (stereo not drawn)
139 to 141	Cn1nnc(CN2CCC[C@@H](OCc3cc(C(F)(F)F)cc(C(F)(F)F)c3)[C@H]2c2ccccc2)n1 (relative stereo)
145 to 147	CCc1[nH][nH]c(=O)c1Cc1ccc2ccccc2c1
81 to 83.5	COc1oc(=O)n(-c2ccccc2)c1C
217	Clc1ccc(-c2cc(-c3cccs3)[nH]n2)cc1
240	CCn1nc2c(N)nc3ccccc3c2c1CC(C)(C)C
50 to 54	NCCCn1c(-c2ccc(-c3ccccc3)cc2)csc1=Nc1ccccc1
150 to 152	COC(=O)c1cc(OC)cc(-c2cccc([N+](=O)[O-])c2)n1
195 to 199	CC(C)(C)NC(=O)[C@@H]1CCCC[C@H]1C[C@@H](O)[C@H](Cc1ccccc1)NC(=O)[C@H](CC(N)=O)NC(=O)OCc1ccccc1
155 to 156	CCOC(=O)c1ccc(NC(=S)NCCn2c(C)ccc2C)cc1
220 to 223	NC(=O)Cc1ccc(-c2ccc3nnn(Cc4ccc5ncccc5c4)c3n2)cc1
122 to 124	CN1C(=O)CCC2(C)c3ccc(Sc4ccc(Cl)cc4)cc3CCC12 (single isomer, unassigned; (+))
61 to 62	C=CCc1cccc2nc(Cc3ccccc3Cl)oc12
77	COC(=O)c1ccc(CCCO)c(C23CC4CC(CC(C4)C2)C3)c1
312 to 314	O=C(Nc1ccc(-c2ccc(-c3ccc(NC(=O)c4ccccc4)cc3)o2)cc1)c1ccccc1
133 to 141	COCC1CN(c2ccc3cc(OCCS(C)=O)ccc3c2)C(=O)O1 (stereo not drawn)
194	CSCC[C@@H](NC(=O)[C@H](Cc1ccc(O)cc1)NC(=O)OC(C)(C)C)C(=O)NCC(=O)O
106 to 108	O=C1CCCN1Cc1ccc2ccn(C3CCN(CCc4ccc(F)cc4)CC3)c2c1
187	CC(C)CC(=O)N[C@H]1CC[C@H](CCN2CCN(c3nccc4c3OCC4)CC2)CC1

SMILES	melting point [°C]
Cn1cc(-c2ccc(C34CCCN(CC3)C4)cn2)cn1 (racemic)	138 to 140

— a melting point compilation (Tetko et al.; mined from patent text by program, amines drawn as free bases though some values may be those of a salt)
